US11026954B2, “3-beta-hydroxy-5-alpha-pregnan-20-one for use in medical treatment” (ASARINA PHARMA AB, priority 2017, dated 2021)

Experiments:
[1] = target: T1, human alpha1,beta2,gamma2 GABAA receptor (Homo sapiens, UniProt P14867+P47870); experiment: Patch-clamp (Dynaflow) on HEK-293 cells expressing GABAA receptor alpha1,beta2,gamma2; type: cell-based; details: for effect by itself (Baseline shift): absence of GABA
T1 construct: expressed in transfected cells
From the text: (§1) Assay for Testing GABAA Receptor Effects of 3Beta-Hydroxy-5Alpha-Pregnan-20-One on Human Alpha1,Beta,Gamma and Alpha4,Beta,Delta GABAA Receptor Subtype.
(§2) 2) in absence and in presence of the positive GABAA receptor modulating steroids Tetrahydrodeoxycorticosterone (THDOC) and 3alpha-hydroxy-5alpha-androstan-17-ol (3alpha-OH-adiol) by the Dynaflow™ system on HEK-293 cells. In these tests the protocol was optimized to be similar to the physiological conditions in the synaptic cleft.
(§3) HEK-293 cells, permanently transfected with the human alpha1,beta,gamma and alpha4,beta,delta GABAA receptor subtypes, were seeded at a density of 3×10^4/25 cm^2 in cellbind culture flask. The transfected cells were used for patch-clamp experiments 3 days after seeding. When using the cells for patch-clamp experiments the cells were washed twice with oxygen-bubbled extracellular (EC) solution (see below). About 5 mL EC was then added and the cells were kept in the incubator for about 15 minutes. After 15 minutes the cells came loose from the bottom of the flask and were separated by carefully sucking couple of times with a Pasteur pipette.
(§4) Dynaflow™ system with Resolve chip was used for patch-clamp experiments: The electrophysiological recordings from HEK-293 cells were performed under voltage-clamp conditions using patch-clamp technique and the Dynaflow™ system (Dynaflow Pro II Platform Zeiss Axiovert 25; Cellectricon AB, Sweden) with Resolve chips as application system.
(§5) Patch pipettes were pulled from borosilicate glass and polished to a resistance 2-5 MΩ when filled with suitable intracellular solution (IC) (pH was adjusted to 7.2) and immersed in bath solution (extracellular, EC) (pH is adjusted to 7.4). The recordings were made using an Axopatch 200B amplifier, a Digidata 1322A (Axon instruments, Foster city, USA). Data were acquired using the pCLAMP software sampled at 10 kHz, filtered at 2-10 kHz and analyzed with Clampfit (versions 9.0, both from Axon instruments, Foster city, USA). No higher series resistance than 20 MΩ between pipette and cell membrane was accepted. No series resistance compensation was used. The stability of series resistance was monitored repeatedly from the time course of capacitative transients during the experiments. The measured liquid-junction potential between EC and IC was subtracted in all data presented. All experiments were performed at room temperature (21-23° C.).
(§6) All steroids were dissolved to the concentration of 6 mM in DMSO. […] End solutions were the solutions added into the wells of the chip.
(§7) After compensating for the liquid junction potential a steady holding potential of −17 mV was used in all experiments. […] By using the holding potential of −17 mV and the intracellular solution with low chloride ion concentration the chloride ions flux into the cell when the receptors were activated.
(§8) The Dynaflow system allowed application of solutions for as short as 40 ms up to minutes in time.
(§9) In the experiments, THDOC and 3alpha-OH-adiol were used as the positive GABAA receptor modulating steroids.
(§10) Different incubation times were studied to achieve the optimal time for attain stable results and minimize the washout time.
(§11) Cell lines permanently expressing a functional human GABAA receptor was made in following steps. The GABAA receptor subunits alpha1, beta2 and gamma2L or alpha4, beta3 and delta including introduced Kozac sequences just before the start codons, were subcloned into mammalian expression vectors containing Geneticin, Hygromycin B, and Zeocin resistance, respectively.

[2] = target: T2, human alpha4,beta3,delta GABAA receptor (Homo sapiens, UniProt P28472+P48169); experiment: Patch-clamp (Dynaflow) on HEK-293 cells expressing GABAA receptor alpha4,beta3,delta; type: cell-based
T2 construct: expressed in transfected cells
T2 sequence (P48169 36-554): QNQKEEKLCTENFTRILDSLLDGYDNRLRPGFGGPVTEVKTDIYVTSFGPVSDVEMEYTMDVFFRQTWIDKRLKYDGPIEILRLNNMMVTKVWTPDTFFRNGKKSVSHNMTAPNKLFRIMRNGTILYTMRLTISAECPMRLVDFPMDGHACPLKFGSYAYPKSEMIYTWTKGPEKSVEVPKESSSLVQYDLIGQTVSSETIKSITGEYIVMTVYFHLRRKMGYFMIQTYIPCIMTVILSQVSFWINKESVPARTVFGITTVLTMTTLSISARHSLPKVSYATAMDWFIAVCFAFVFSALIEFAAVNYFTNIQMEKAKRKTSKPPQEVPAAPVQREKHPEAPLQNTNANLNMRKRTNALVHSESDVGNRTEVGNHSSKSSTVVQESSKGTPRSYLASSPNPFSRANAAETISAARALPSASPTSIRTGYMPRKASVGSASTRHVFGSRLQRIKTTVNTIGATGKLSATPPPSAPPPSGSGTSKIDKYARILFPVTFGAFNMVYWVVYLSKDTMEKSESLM
T2 sequence (P28472 26-473): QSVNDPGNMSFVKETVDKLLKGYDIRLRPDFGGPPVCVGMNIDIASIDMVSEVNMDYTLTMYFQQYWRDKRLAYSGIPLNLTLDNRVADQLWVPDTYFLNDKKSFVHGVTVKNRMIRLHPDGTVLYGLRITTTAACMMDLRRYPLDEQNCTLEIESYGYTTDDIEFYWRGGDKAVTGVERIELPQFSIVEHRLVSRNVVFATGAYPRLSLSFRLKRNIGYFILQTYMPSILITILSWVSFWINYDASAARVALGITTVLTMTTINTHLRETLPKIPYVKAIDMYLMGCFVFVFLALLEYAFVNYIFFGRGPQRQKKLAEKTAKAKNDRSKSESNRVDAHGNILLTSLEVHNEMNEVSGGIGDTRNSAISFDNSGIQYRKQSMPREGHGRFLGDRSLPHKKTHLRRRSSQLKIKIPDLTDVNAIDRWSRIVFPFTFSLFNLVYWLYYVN
T2 sequence (O14764 17-452 partner limits assumed): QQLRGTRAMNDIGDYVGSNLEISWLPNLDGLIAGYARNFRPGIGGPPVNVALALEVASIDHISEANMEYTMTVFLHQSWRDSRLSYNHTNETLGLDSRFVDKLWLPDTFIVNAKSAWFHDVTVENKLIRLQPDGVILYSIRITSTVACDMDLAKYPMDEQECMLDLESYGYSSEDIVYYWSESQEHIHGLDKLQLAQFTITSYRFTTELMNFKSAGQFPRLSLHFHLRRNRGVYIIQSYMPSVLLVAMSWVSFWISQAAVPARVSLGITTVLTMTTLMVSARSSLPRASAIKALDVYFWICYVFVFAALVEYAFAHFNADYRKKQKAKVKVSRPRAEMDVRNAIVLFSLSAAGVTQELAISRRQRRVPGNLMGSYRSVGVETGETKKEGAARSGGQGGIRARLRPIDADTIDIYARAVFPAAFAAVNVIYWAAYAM
From the text: as §1, §2, §3, §4, §5, §6, §7, §8, §9, §10, §11

[3] = 1 μM 3beta-hydroxy-5alpha-pregnan-20-one

T1 sequence (P14867 28-456): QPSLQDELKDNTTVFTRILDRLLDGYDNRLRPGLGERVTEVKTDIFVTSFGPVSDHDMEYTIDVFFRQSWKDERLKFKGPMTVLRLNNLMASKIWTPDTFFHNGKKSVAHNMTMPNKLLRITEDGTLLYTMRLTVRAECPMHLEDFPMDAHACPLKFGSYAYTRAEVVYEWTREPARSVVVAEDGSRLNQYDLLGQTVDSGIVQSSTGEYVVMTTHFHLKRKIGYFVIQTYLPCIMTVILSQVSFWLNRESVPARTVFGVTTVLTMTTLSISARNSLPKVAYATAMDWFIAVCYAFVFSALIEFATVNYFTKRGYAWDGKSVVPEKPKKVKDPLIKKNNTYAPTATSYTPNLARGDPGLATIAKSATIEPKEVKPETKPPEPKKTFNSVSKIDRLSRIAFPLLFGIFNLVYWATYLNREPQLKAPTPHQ
T1 sequence (P47870 25-512 limits assumed): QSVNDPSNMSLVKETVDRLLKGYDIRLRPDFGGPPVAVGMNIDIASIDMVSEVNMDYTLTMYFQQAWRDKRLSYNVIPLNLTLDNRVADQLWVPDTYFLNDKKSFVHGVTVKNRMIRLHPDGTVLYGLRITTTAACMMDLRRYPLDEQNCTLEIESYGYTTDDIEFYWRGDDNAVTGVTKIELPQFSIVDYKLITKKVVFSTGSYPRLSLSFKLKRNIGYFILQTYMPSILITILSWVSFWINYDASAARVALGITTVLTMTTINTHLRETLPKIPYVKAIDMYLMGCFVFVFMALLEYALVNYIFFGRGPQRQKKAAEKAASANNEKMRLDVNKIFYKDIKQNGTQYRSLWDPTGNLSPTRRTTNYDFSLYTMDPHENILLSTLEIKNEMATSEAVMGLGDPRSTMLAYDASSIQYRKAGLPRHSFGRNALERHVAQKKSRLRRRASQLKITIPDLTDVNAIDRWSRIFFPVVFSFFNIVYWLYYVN
T1 sequence (P18507 40-475 partner): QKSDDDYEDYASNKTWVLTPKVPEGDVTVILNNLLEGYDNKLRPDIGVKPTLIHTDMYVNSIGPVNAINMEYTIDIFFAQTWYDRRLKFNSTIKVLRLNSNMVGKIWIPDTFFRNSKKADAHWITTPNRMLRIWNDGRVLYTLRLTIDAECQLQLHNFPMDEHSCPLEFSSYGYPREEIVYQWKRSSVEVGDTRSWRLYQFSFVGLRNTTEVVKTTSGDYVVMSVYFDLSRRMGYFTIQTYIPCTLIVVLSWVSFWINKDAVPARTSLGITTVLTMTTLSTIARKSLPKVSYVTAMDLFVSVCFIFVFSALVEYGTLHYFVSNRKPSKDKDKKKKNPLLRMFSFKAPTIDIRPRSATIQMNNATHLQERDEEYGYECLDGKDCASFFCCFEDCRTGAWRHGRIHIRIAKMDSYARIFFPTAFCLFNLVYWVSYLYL

CC(=O)[C@H]1CC[C@H]2[C@@H]3CC[C@H]4C[C@@H](O)CC[C@]4(C)[C@H]3CC[C@]12C [3beta-hydroxy-5alpha-pregnan-20-one]
Antagonism of THDOC enhanced GABA effect (max, concentration-dependent experiment) ([1]; 1 μM 3beta-hydroxy-5alpha-pregnan-20-one + 30 μM GABA + 200 nM THDOC, n=10): −21±4.6% | Effect on 8 μM Androstandiol + 30 μM GABA ([1]; 1 μM 3beta-hydroxy-5alpha-pregnan-20-one, phasic effect): −30 ± 1.7% | Effect on 8 μM Androstandiol, baseline shift ([1]; 1 μM 3beta-hydroxy-5alpha-pregnan-20-one, tonic effect, without GABA): −33 ± 7.6% | Imax, antagonism of THDOC effect ([1]; 0.1-1 μM 3beta-hydroxy-5alpha-pregnan-20-one + 30 μM GABA + 200 nM THDOC): −21% | Antagonism of THDOC enhanced GABA effect (single dose) ([1]; single dose 1 μM + 30 μM GABA + 200 nM THDOC, n=6): −22.3±5.3% | Effect on 0.6 μM Androstandiol + 3 μM GABA [2, 3]: −18 ± 2.0% | Effect on 0.8 μM Androstandiol + 3 μM GABA [2, 3]: −22 ± 2.6% | Effect by itself (current response) ([2]; 1 μM 3beta-hydroxy-5alpha-pregnan-20-one alone, N=11, NS vs EC solution): −0.4±0.3 pA | Effect on 3 μM GABA response ([2]; 1 μM 3beta-hydroxy-5alpha-pregnan-20-one, N=11, NS): −6.7 ± 3.3% | Effect on GABA alone (in words) ([2]; 1 μM 3beta-hydroxy-5alpha-pregnan-20-one, data not shown): without any significant effect | Effect on 0.1 μM THDOC + 3 μM GABA ([2]; 1 μM 3beta-hydroxy-5alpha-pregnan-20-one, steady state): −26 ± 2.4% | Effect on 0.1 μM THDOC alone baseline ([2]; 1 μM 3beta-hydroxy-5alpha-pregnan-20-one, without GABA): −43 ± 3.5%

C[C@]12CC[C@@H](O)C[C@@H]1CC[C@@H]1[C@@H]2CC[C@]2(C)C(O)CC[C@@H]12 (stereo partly drawn) [Androstandiol, 3alpha-hydroxy-5alpha-androstan-17-ol]
effect by itself (Baseline shift) ([1]; 3 μM androstandiol): +8 ± 3.6 pA | effect by itself (Baseline shift) ([1]; 8 μM androstandiol): +13 ± 2.3 pA | effect by itself (Baseline shift) ([1]; 10 μM androstandiol): +11 ± 1.5 pA | effect by itself (Baseline shift) ([1]; 30 μM androstandiol): +24 ± 6.8 pA | effect by itself (Baseline shift) ([1]; 100 μM androstandiol): +43 ± 5.7 pA | Potency relative to THDOC (less potent) ([1]; enhancing the effect of GABA, 30 μM GABA): 48 times | Baseline shift (current response in absence of GABA) ([2]; 3 μM androstandiol): +8 ± 3.6 pA | Baseline shift (current response in absence of GABA) ([2]; 10 μM androstandiol): +13 ± 4.8 pA | Potency at alpha4,beta3,delta relative to alpha1,beta2,gamma2 (higher) ([2]; enhancement of GABA-mediated current): 10 times

C[C@]12CC[C@@H](O)C[C@H]1CC[C@@H]1[C@@H]2CC[C@]2(C)[C@@H](C(=O)CO)CC[C@@H]12 [THDOC, Tetrahydrodeoxycorticosterone]
Emax, enhancement of GABA mediated current ([1]; 0.03-1 μM THDOC + 30 μM GABA): +115% | EC50 ([1]; read-out: EC50, enhancement of GABA mediated current, 0.03-1 μM THDOC + 30 μM GABA): 0.07 µM | Baseline shift (current response in absence of GABA) ([2]; 0.03 μM THDOC): +5 ± 3.3 pA | Baseline shift (current response in absence of GABA) ([2]; 0.1 μM THDOC): +15 ± 9.5 pA | Baseline shift (current response in absence of GABA) ([2]; 0.3 μM THDOC): +12 ± 7.9 pA | Baseline shift (current response in absence of GABA) ([2]; 1 μM THDOC): +69 ± 35 pA | Emax, enhancement of GABA mediated current response ([2]; THDOC + 3 μM GABA): 297% | EC50 ([2]; read-out: EC50, enhancement of GABA mediated current response, THDOC + 3 μM GABA): 0.047 µM
